Measurements: PubChem BioAssay (NCI)
Where “and” joins values, the source holds several entries; their conditions need not be identical. Identical values can stand only once.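 Step 1: Grow cells in 96-well plates. Step 2: Expose to compound for 48 hours at 5 concentrations. Step 3: Interpolate endpoints linearly; if unreached, use highest concentration. At the GI50, growth is halved. TGI marks complete inhibition of growth.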

Assays:
Assay in all cases: NCI anticancer screen, dose series, 48 h
HCC-2998 colon = system: HCC-2998 colon
HCT-116 colon = system: HCT-116 colon
OVCAR-4 ovarian = system: OVCAR-4 ovarian
SK-MEL-2 melanoma = system: SK-MEL-2 melanoma
K-562 leukemia = system: K-562 leukemia
SW-620 colon = system: SW-620 colon
UACC-62 melanoma = system: UACC-62 melanoma
NCI-H23 lung = system: NCI-H23 lung
UO-31 renal = system: UO-31 renal
SNB-19 CNS = system: SNB-19 CNS
CAKI-1 renal = system: CAKI-1 renal
SF-295 CNS = system: SF-295 CNS
SF-268 CNS = system: SF-268 CNS
CCRF-CEM leukemia = system: CCRF-CEM leukemia
A498 renal = system: A498 renal
HCT-15 colon = system: HCT-15 colon
OVCAR-3 ovarian = system: OVCAR-3 ovarian

SMILES | TGI (HCC-2998 colon) | TGI (HCT-116 colon) | TGI (OVCAR-4 ovarian) | TGI (SK-MEL-2 melanoma) | TGI (K-562 leukemia) [µM] | TGI (SW-620 colon) | TGI (UACC-62 melanoma) | TGI (NCI-H23 lung) | TGI (UO-31 renal) | TGI (SNB-19 CNS) | TGI (CAKI-1 renal) | TGI (SF-295 CNS) | TGI (SF-268 CNS) | TGI (CCRF-CEM leukemia) | TGI (A498 renal) | TGI (HCT-15 colon) | TGI (OVCAR-3 ovarian) | GI50 (K-562 leukemia) [µM] | GI50 (SW-620 colon) | GI50 (SF-295 CNS)
CC(=O)NC(CCCCNCc1ccccc1)C(=O)NCc1ccccc1 (stereo not given) | > 100 µM | > 100 µM | > 100 µM | > 100 µM | > 100 | > 100 µM | > 100 µM | > 100 µM | > 100 µM | > 100 µM | > 100 µM | > 100 µM | > 100 µM | > 100 µM | > 100 µM | > 100 µM | > 100 µM | – | – | –
Cc1cc(C)c(/C=C2\C(=O)Nc3ccccc32)[nH]1 | > 100 µM | > 100 µM | > 100 µM | > 100 µM | > 100 | > 100 µM | > 100 µM | > 100 µM | > 100 µM | > 100 µM | > 100 µM | > 100 µM | > 100 µM | > 100 µM | > 100 µM | > 100 µM | > 100 µM | – | – | –
CCc1cccc(C(C)C)c1NC(=O)/C(=N\NC(N)=O)C(C(=O)OC)c1cnc2ccccc2n1 (stereo not given) | > 100 µM | 86.6 µM | > 100 µM | > 100 µM | > 100 | > 100 µM | 62.7 µM | 57.5 µM | > 100 µM | > 100 µM | > 100 µM | > 100 µM | > 100 µM | > 100 µM | > 100 µM | > 100 µM | 60.3 µM | – | – | –
NC(=O)N/N=C\CC(O)(C(F)(F)Cl)C(F)(F)Cl | > 10 µM | > 10 µM | > 10 µM | > 10 µM | > 10 | > 10 µM | > 10 µM | > 10 µM | > 10 µM | > 10 µM | > 10 µM | > 10 µM | > 10 µM | > 10 µM | > 10 µM | > 10 µM | > 10 µM | – | – | –
O=C(N/C(=C\c1ccccc1)c1nc2ccccc2c(=O)o1)c1ccccc1 | > 100 µM | > 100 µM | > 100 µM | > 100 µM | > 100 | > 100 µM | > 100 µM | > 100 µM | 97.3 µM | > 67.1 µM | > 100 µM | > 100 µM | > 78.2 µM | > 100 µM | > 100 µM | > 100 µM | > 100 µM | – | – | –
O=C1N[C@H]2C(=O)c3c(Br)sc(Br)c3[C@H]2O1 | 24.2 µM | 7.33 µM | 31.3 µM | 31.9 µM | > 21.7 | 4.76 µM | 26.7 µM | 17.7 µM | 4.22 µM | 30.7 µM | 9.81 µM | 37 µM | 14.2 µM | 3.63 µM | 33.2 µM | 4 µM | 17 µM | – | – | –
CCS1=C2C(=O)CC(C)(C)CC2=Nc2ccccc21 (stereo not given) | > 100 µM | > 100 µM | > 100 µM | > 100 µM | > 100 | > 100 µM | > 100 µM | > 100 µM | > 100 µM | > 100 µM | > 100 µM | > 100 µM | > 100 µM | > 100 µM | > 100 µM | > 100 µM | > 100 µM | – | – | –
O=C(/C=C/c1ccc([N+](=O)[O-])cc1)N1CCN(CCOC(c2ccc(F)cc2)c2ccc(F)cc2)CC1 | > 100 µM | > 100 µM | > 100 µM | > 100 µM | > 100 | > 100 µM | > 100 µM | > 100 µM | 96.4 µM | > 100 µM | > 100 µM | > 100 µM | > 100 µM | > 100 µM | > 100 µM | > 100 µM | > 100 µM | – | – | –
CC(NNC(=O)c1ccncc1)c1ccccc1 (stereo not given) | > 100 µM | > 100 µM | > 100 µM | > 100 µM | > 100 | > 100 µM | > 100 µM | > 100 µM | > 100 µM | > 100 µM | > 100 µM | > 100 µM | > 100 µM | > 100 µM | > 100 µM | > 100 µM | > 100 µM | – | – | –
CCOC(=O)c1c(CN2CCNCC2)nc2ccc(Cl)cc2c1-c1ccccc1 | 3 µM | 10.2 µM | 12.3 µM | 3.36 µM | 7.03 | 4.87 µM | 3.76 µM | 25.7 µM | 9.69 µM | 28.4 µM | 8.11 µM | 5.97 µM | 17.9 µM | 8.21 µM | 23.4 µM | 10.5 µM | 20.2 µM | – | – | –
Cc1c(-c2ccccc2)c(C#N)c2nnn(-c3ccc(Cl)cc3)c(=O)n12 | > 100 µM | > 100 µM | > 100 µM | > 100 µM | > 100 | > 100 µM | > 100 µM | > 100 µM | > 100 µM | > 100 µM | > 100 µM | > 100 µM | > 100 µM | > 100 µM | > 100 µM | > 100 µM | 52.2 µM | – | – | –
O=C(CCN1CCCCC1)Nc1ccc2c(c1)C(=O)c1ccc(NC(=O)CCN3CCCCC3)cc1C2=O | 13.5 µM | 3.2 µM | 8.45 µM | 9.92 µM | 7.64 | 4.62 µM | 34.7 µM | 12.5 µM | 32.8 µM | 10.1 µM | 27.5 µM | 10.4 µM | 24.2 µM | 11.1 µM | 26.7 µM | 7.63 µM | 20.9 µM | – | – | –
S=C(NCCc1ccccn1)N/N=C(\c1ccccc1)c1ccccn1 | > 63 µM | > 100 µM | 54.7 µM | > 100 µM | > 100 | > 100 µM | > 24.4 µM | > 27.3 µM | 14.1 µM | > 100 µM | > 58.8 µM | > 55.7 µM | > 76.1 µM | > 100 µM | 0.951 µM | > 86.5 µM | > 100 µM | – | – | –
N=S(c1ccccc1[N+](=O)[O-])c1ccccc1[N+](=O)[O-] | 7.11 µM and 9.66 µM | 3.28 µM and 3.58 µM | 2.05 µM and 1.11 µM | 7.97 µM and 9.86 µM | 7.29 | 2.95 µM and 10 µM | 9.13 µM and 10.2 µM | 6.77 µM and 11 µM | 3.94 µM and 7.44 µM | 22.5 µM and 20.9 µM | 4.19 µM and 12 µM | 6.16 µM and 15.4 µM | 11.9 µM and 5.94 µM | 7.79 µM and 2.7 µM | 43.5 µM and 32.2 µM | 2.06 µM and 3.72 µM | 1.63 µM and 3.05 µM | 2.19 | 1.14 µM and 2.47 µM | 2.45 µM and 5.99 µM
CC(=O)Nc1ccc(S(=O)(=O)c2nnc(NC(C)=O)s2)cc1 | > 100 µM | > 100 µM | > 100 µM | > 100 µM | > 100 | > 100 µM | > 100 µM | > 100 µM | > 100 µM | > 100 µM | > 100 µM | > 100 µM | > 100 µM | > 100 µM | > 100 µM | > 100 µM | > 100 µM | – | – | –
Cn1c(=O)c2c(nc3n2CCCC(=O)N3CCCCl)n(C)c1=O | > 100 µM | > 100 µM | > 100 µM | > 100 µM | > 100 | > 100 µM | > 100 µM | > 100 µM | > 100 µM | > 100 µM | > 100 µM | > 100 µM | > 100 µM | > 100 µM | > 100 µM | > 100 µM | > 100 µM | – | – | –
O=C(O)CCC(NC(=O)c1ccc(Oc2nc3ccccc3nc2C(=O)O)cc1)C(=O)O (stereo not given) | > 100 µM | > 100 µM | > 100 µM | > 100 µM | > 100 | > 100 µM | > 100 µM | > 100 µM | > 100 µM | > 100 µM | > 100 µM | > 100 µM | > 100 µM | > 100 µM | > 100 µM | > 100 µM | > 100 µM | – | – | –
CCCCCCCCCCC/C=C(/C(=O)CCCO[Si](C)(C)C(C)(C)C)C(=O)OC | > 100 µM | > 100 µM | > 100 µM | > 100 µM | > 100 | > 100 µM | > 100 µM | > 100 µM | > 100 µM | > 100 µM | > 100 µM | > 100 µM | > 100 µM | > 100 µM | > 100 µM | > 100 µM | > 100 µM | – | – | –
O=C(NC(CS)C(=O)O)c1c2ccccc2nc2ccccc12 (stereo not given) | > 100 µM | > 100 µM | > 100 µM | > 100 µM | > 100 | > 100 µM | > 100 µM | 68.6 µM | 43 µM | > 100 µM | > 100 µM | > 100 µM | > 100 µM | > 100 µM | > 100 µM | > 100 µM | > 100 µM | – | – | –
C[C@]12CC[C@H]3[C@@H](CC=C4C[C@@H](O)CC[C@@]43C)[C@@H]1C/C(=C\c1ccncc1)[C@@H]2O | > 100 µM | 51.4 µM | 39.5 µM | 45.9 µM | > 100 | > 100 µM | 30.7 µM | 33.6 µM | > 100 µM | 62.1 µM | 57.4 µM | 35.5 µM | 54.4 µM | 50.8 µM | 28.3 µM | 58.9 µM | > 100 µM | – | – | –
Nc1nc(Cl)c(N)c(NCC2(CO)CCC(OCc3ccccc3)C2)n1 (stereo not given) | > 100 µM | > 100 µM | > 100 µM | > 100 µM | > 100 | > 100 µM | > 100 µM | > 100 µM | > 100 µM | > 100 µM | > 100 µM | > 100 µM | > 100 µM | > 100 µM | 81.5 µM | > 100 µM | > 100 µM | – | – | –
